# Experimental data from article PMC5634595, “Properties of halogenated and sulfonated porphyrins relevant for the selection of photosensitizers in anticancer and antimicrobial therapies” (PLoS ONE, 2017).
# Key:
# [1] = Singlet oxygen quantum yield by phosphorescence at 1270 nm; format: physicochemical; conditions: EtOH, phenalenone as reference
# Experimental: Fluorescence emission spectra were recorded from 550 nm to 750 nm with excitation at Soret band (λ≈420 nm). The excitation and emission slits were both set to 8 nm and scanning speed to 50 nm/min. Fluorescence spectra were recorded with a Perkin Elmer Fluorescence Spectrometer LS 55. Determination of fluorescence quantum yields: ΦF of studied photosensitizers was determined using the comparative method according to the equation: ΦF=ΦFStd⋅FAStdn^2/FStdAnStd2, (1) where F and FStd are the areas under the fluorescence emission curves of the sample and the standard, A and AStd are the absorbance of the sample and the standard and n are the refractive indices of the solvent used for the sample and the standard, respectively. Commercially available tetraphenylporphyrin TPP (Std) (ΦF = 0.10 in toluene) was employed as the standard. The absorbance of the solutions at the excitation wavelength was in the range of 0.02. Singlet oxygen quantum yields were determined based on the relative phosphorescence emissions of singlet oxygen generated by a reference and by each one of the porphyrins, using a method described elsewhere. Briefly, a modified Applied Photophysics LKS.60 flash photolysis spectrometer with a Hamamatsu NIR photomultiplier for detection and HP Infinium (500 MHz, 1GSas^-1) or Tektronix DPO 7254 (2.5 GHz, 40GSas^-1) oscilloscopes were used. The adaptation of this spectrometer allowed for the detection of singlet oxygen phosphorescence at room temperature. This emission was detected using a Hamamatsu R5509–42 photomultiplier, cooled to 193 K in a liquid nitrogen chamber. […] The modification of the spectrometer for time-resolved singlet oxygen phosphorescence measurements involved the interposition of a Melles Griot cold mirror (03MCS005), which reflects more than 99% of the incident light in the 400–700 nm range, and of a Scotch RG665 filter. A 600 line diffraction grating was mounted in place of a standard one. […] Solutions of photosensitizers were prepared with matched absorbances close to 0.2 at 355 nm. […]
# [2] = UV/Vis absorption spectra, molar absorption coefficients; format: physicochemical; conditions: EtOH
# Experimental: All commercial chemicals and reagents were of analytical grade and were purchased from Sigma-Aldrich. UV/Vis absorption spectra were recorded in a Hewlett Packard HP8453 spectrophotometer. Solutions containing samples of photosensitizers were dissolved in the selected solvent in quartz cuvettes. Using measured absorbance for various concentrations of porphyrin in ethanol, the molar absorption coefficients were determined from Beer’s law.
# [3] = Dynamic light scattering and zeta potential of PS-Pluronic L121 micelles; format: physicochemical; conditions: Pluronic L121-based formulation, DLS, homogeneous distribution
# Experimental: Micellar formulations with Pluronic […] were prepared according to a method recently described. The micelles were characterized by Dynamic Light Scattering (DLS) using a Malvern Zetaziser Nano ZS system. The apparent diffusion coefficients of the micelles were obtained from the normalized time correlation function of the scattered electric field, g(1)(τ), using the cumulants analysis. An average value was obtained from repeated measurements for each sample (N = 3).
# S. aureus (8325–4) = experiment: Photodynamic inactivation of microorganisms, CFU; format: cell-based; conditions: 20 μM, 10 min irradiation (10 J/cm^2, 420±20 nm)
# Experimental: (§1) The microorganisms used in PDI were: S. aureus (8325–4), E. faecalis (ATCC29212), E. coli (K12), P. aeruginosa (ATCC19660), S. marcescens (ATCC14756) and C. albicans (DAY286). The planctonic bacteria cells were cultured in brain heart infusion broth (Sigma-Aldrich) and LB Broth/Lennox (BioShop Lab Science Products) in an orbital incubator (37°C, 130 rpm), until the optical density reached 0.5, which corresponds to approximately 10^7 CFU per mL. The fungal yeasts were cultured in YPD Broth (BioShop) with overnight aeration at 30°C to reach ca. 10^6 CFU/mL. For PDI experiments cell suspensions of bacteria or fungal yeasts were incubated with various concentrations of the porphyrins at pH 7.4 (PBS) for 1 h in the dark at room temperature. Aliquots (1 mL) were transferred to a 12-well plate and illuminated with a blue light. We used blue-LED array (420±20 nm) to deliver a light dose of 10 J/cm^2 (measured with a power meter). Cells treated with photosensitizers in the dark were incubated covered with aluminum foil for the same time as the PDI groups (1 h). After illumination (or dark incubation) samples were shaken, diluted in PBS, mixed and plated (LB agar). Aliquots were taken from each well to determine the CFU value. Plates were streaked in triplicate and incubated for 12–36 h at 30 °C (for fungal yeasts) or 37 °C (for bacteria) in the dark to allow colony formation.
# E. coli (K12) = experiment: Photodynamic inactivation of microorganisms, CFU; format: cell-based; conditions: PDI 10 J/cm^2, 420±20 nm, concentration not given
# Experimental: as §1
# [4] = tested on: P. aeruginosa (ATCC19660); experiment: Photodynamic inactivation of microorganisms, CFU; format: cell-based; conditions: PDI 10 J/cm^2, 420±20 nm, concentration not given
# Experimental: as §1
structure (smiles),measurement,setting,value
"O=S(=O)(O)c1ccc(F)c(-c2c3nc(c(-c4c(F)ccc(S(=O)(=O)O)c4F)c4ccc([nH]4)c(-c4c(F)ccc(S(=O)(=O)O)c4F)c4nc(c(-c5c(F)ccc(S(=O)(=O)O)c5F)c5ccc2[nH]5)C=C4)C=C3)c1F [F2POH, 5,10,15,20-tetrakis(2,6-difluoro-3-sulfophenyl)porphyrin]",Singlet oxygen quantum yield ΦΔ,[1],0.71
same,"Absorption λmax, Qx (0,1)",[2],584 nm
same,"Absorption λmax, Qx(0,0)",[2],638 nm
same,"Absorption λmax, Qy (0,0)",[2],532 nm
same,"Absorption λmax, Qy (0,1)",[2],508 nm
same,"Absorption λmax, B(0,0)",[2]; Soret band,420 nm
same,Particle Diameter (hydrodynamic diameter),[3],ca. 115 nm
same,Reduction in colony forming units (CFU),S. aureus (8325–4),6 logs
same,Decrease in survival,E. coli (K12),1.5–2 logs
same,Decrease in survival / bacteria CFU killing,[4],1.5–2 logs
